{"source": "PubChem BioAssay (NCI)", "test_in_all_cases": "inhibition of tumour cell growth, NCI panel, 48 h", "key": {"[1]": {"system": "SN12C renal"}, "[2]": {"system": "TK-10 renal"}, "[3]": {"system": "RPMI-8226 leukemia"}, "[4]": {"system": "LOX IMVI melanoma"}, "[5]": {"system": "SK-MEL-2 melanoma"}, "[6]": {"system": "HCT-15 colon"}, "[7]": {"system": "DU-145 prostate"}, "[8]": {"system": "CAKI-1 renal"}, "[9]": {"system": "NCI-H226 lung"}, "[10]": {"system": "MDA-MB-231 breast"}}, "note": "Several values for one entry are separate records, joined by “and”; a condition that tells them apart may be missing. Equal entries are not always repeated.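 Five compound concentrations were applied to cells in 96-well plates for 48 hours; endpoints were derived by simple linear interpolation of the resulting dose-response curve. Here, GI50 denotes the concentration required for 50% inhibition of growth. The concentration for full growth arrest is given as TGI.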"}
{"smiles": "CCC(=O)CC(=O)CCC(=O)Nc1cc(C)ccc1C", "values": [{"measurement": "TGI", "setting": "[1]", "result": "> 100", "unit": "µM"}, {"measurement": "TGI", "setting": "[2]", "result": "> 100", "unit": "µM"}, {"measurement": "TGI", "setting": "[3]", "result": "> 100", "unit": "µM"}, {"measurement": "TGI", "setting": "[4]", "result": "> 100", "unit": "µM"}, {"measurement": "TGI", "setting": "[5]", "result": "> 100", "unit": "µM"}, {"measurement": "TGI", "setting": "[6]", "result": "> 100", "unit": "µM"}]}
{"smiles": "CN1CCN(C2CCN(C(=O)Nc3cc(Oc4ccc(NC(=O)C5(C(=O)Nc6ccc(F)cc6)CC5)c(F)c4)ccn3)CC2)CC1", "values": [{"measurement": "GI50", "setting": "[1]", "result": 0.855, "unit": "µM"}, {"measurement": "TGI", "setting": "[1]", "result": "> 7.82", "unit": "µM"}, {"measurement": "GI50", "setting": "[2]", "result": 365, "unit": "nM"}, {"measurement": "TGI", "setting": "[2]", "result": "> 10", "unit": "µM"}, {"measurement": "GI50", "setting": "[7]", "result": 1410, "unit": "nM"}, {"measurement": "TGI", "setting": "[7]", "result": "> 10", "unit": "µM"}, {"measurement": "GI50", "setting": "[3]", "result": 1620, "unit": "nM"}, {"measurement": "TGI", "setting": "[3]", "result": "> 2.63", "unit": "µM"}, {"measurement": "GI50", "setting": "[4]", "result": 1040, "unit": "nM"}, {"measurement": "TGI", "setting": "[4]", "result": "> 10", "unit": "µM"}, {"measurement": "GI50", "setting": "[5]", "result": 744, "unit": "nM"}, {"measurement": "TGI", "setting": "[5]", "result": 2.18, "unit": "µM"}, {"measurement": "GI50", "setting": "[6]", "result": 2040, "unit": "nM"}, {"measurement": "TGI", "setting": "[6]", "result": "> 10", "unit": "µM"}, {"measurement": "GI50", "setting": "[8]", "result": 932, "unit": "nM"}, {"measurement": "TGI", "setting": "[8]", "result": "> 10", "unit": "µM"}, {"measurement": "TGI", "setting": "[9]", "result": "> 3.12", "unit": "µM"}, {"measurement": "GI50", "setting": "[10]", "result": 981, "unit": "nM"}, {"measurement": "TGI", "setting": "[10]", "result": "> 7", "unit": "µM"}]}
{"smiles": "O=c1/c(=C/c2ccccc2[N+](=O)[O-])sc2nnc(-c3ccco3)n12", "values": [{"measurement": "TGI", "setting": "[1]", "result": "> 100", "unit": "µM"}, {"measurement": "TGI", "setting": "[2]", "result": "> 100", "unit": "µM"}, {"measurement": "TGI", "setting": "[4]", "result": 31.8, "unit": "µM"}, {"measurement": "TGI", "setting": "[5]", "result": 34.6, "unit": "µM"}, {"measurement": "TGI", "setting": "[6]", "result": 75.8, "unit": "µM"}, {"measurement": "TGI", "setting": "[8]", "result": "> 100", "unit": "µM"}, {"measurement": "TGI", "setting": "[9]", "result": 61, "unit": "µM"}]}
{"smiles": "Cc1c2n(c(=O)[nH]c1=O)C1OC(CO)C(O2)C1O", "note": "(stereo not given)", "values": [{"measurement": "TGI", "setting": "[1]", "result": "> 100", "unit": "µM"}, {"measurement": "TGI", "setting": "[2]", "result": "> 100", "unit": "µM"}, {"measurement": "TGI", "setting": "[3]", "result": "> 100", "unit": "µM"}, {"measurement": "TGI", "setting": "[4]", "result": "> 100", "unit": "µM"}, {"measurement": "TGI", "setting": "[5]", "result": "> 100", "unit": "µM"}, {"measurement": "TGI", "setting": "[6]", "result": "> 100", "unit": "µM"}, {"measurement": "TGI", "setting": "[8]", "result": "> 100", "unit": "µM"}, {"measurement": "TGI", "setting": "[9]", "result": "> 100", "unit": "µM"}]}
{"smiles": "c1ccc2cc(-c3cc4ccccc4s3)ccc2c1", "values": [{"measurement": "TGI", "setting": "[1]", "result": "> 100", "unit": "µM"}, {"measurement": "TGI", "setting": "[2]", "result": "> 100", "unit": "µM"}, {"measurement": "TGI", "setting": "[3]", "result": "> 100", "unit": "µM"}, {"measurement": "TGI", "setting": "[4]", "result": "> 100", "unit": "µM"}, {"measurement": "TGI", "setting": "[5]", "result": "> 100", "unit": "µM"}, {"measurement": "TGI", "setting": "[6]", "result": "> 100", "unit": "µM"}, {"measurement": "TGI", "setting": "[8]", "result": "> 100", "unit": "µM"}, {"measurement": "TGI", "setting": "[9]", "result": "> 100", "unit": "µM"}]}
{"smiles": "C[N+](C)(C)CC1CCCc2ccccc2C1=O", "note": "(stereo not given)", "values": [{"measurement": "GI50", "setting": "[1]", "result": 18.9, "unit": "µM"}, {"measurement": "TGI", "setting": "[1]", "result": 38.5, "unit": "µM"}, {"measurement": "TGI", "setting": "[2]", "result": 36.8, "unit": "µM"}, {"measurement": "TGI", "setting": "[7]", "result": "> 56.3", "unit": "µM"}, {"measurement": "GI50", "setting": "[4]", "result": "1930 nM and 2230 nM"}, {"measurement": "TGI", "setting": "[4]", "result": "4.78 µM and 5.93 µM"}, {"measurement": "TGI", "setting": "[5]", "result": 27.2, "unit": "µM"}, {"measurement": "GI50", "setting": "[6]", "result": 2750, "unit": "nM"}, {"measurement": "TGI", "setting": "[6]", "result": 8.43, "unit": "µM"}, {"measurement": "GI50", "setting": "[8]", "result": 2060, "unit": "nM"}, {"measurement": "TGI", "setting": "[8]", "result": "6.71 µM and 5.04 µM"}, {"measurement": "TGI", "setting": "[9]", "result": 42.2, "unit": "µM"}, {"measurement": "TGI", "setting": "[10]", "result": 30.6, "unit": "µM"}]}
{"smiles": "O=C1c2ccccc2C(=O)N1CCn1ccc(NC(c2ccccc2)(c2ccccc2)c2ccccc2)nc1=O", "values": [{"measurement": "TGI", "setting": "[1]", "result": 83, "unit": "µM"}, {"measurement": "TGI", "setting": "[2]", "result": 69.5, "unit": "µM"}, {"measurement": "TGI", "setting": "[3]", "result": 51.3, "unit": "µM"}, {"measurement": "TGI", "setting": "[4]", "result": 31.8, "unit": "µM"}, {"measurement": "TGI", "setting": "[5]", "result": 43.2, "unit": "µM"}, {"measurement": "TGI", "setting": "[6]", "result": 62.6, "unit": "µM"}, {"measurement": "TGI", "setting": "[8]", "result": "> 100", "unit": "µM"}, {"measurement": "TGI", "setting": "[9]", "result": 34.1, "unit": "µM"}]}
{"smiles": "O=C(/C=C/c1ccccc1)CCC1C(=O)c2ccccc2C1=O", "values": [{"measurement": "TGI", "setting": "[1]", "result": "> 100", "unit": "µM"}, {"measurement": "TGI", "setting": "[7]", "result": "> 100", "unit": "µM"}, {"measurement": "TGI", "setting": "[3]", "result": "> 100", "unit": "µM"}, {"measurement": "TGI", "setting": "[4]", "result": "> 100", "unit": "µM"}, {"measurement": "TGI", "setting": "[5]", "result": "> 100", "unit": "µM"}, {"measurement": "TGI", "setting": "[6]", "result": "> 100", "unit": "µM"}, {"measurement": "TGI", "setting": "[8]", "result": "> 100", "unit": "µM"}, {"measurement": "TGI", "setting": "[9]", "result": "> 100", "unit": "µM"}, {"measurement": "TGI", "setting": "[10]", "result": "> 100", "unit": "µM"}]}
{"smiles": "O=C(Nc1ccn(CCO)c(=O)n1)c1ccccc1", "values": [{"measurement": "TGI", "setting": "[1]", "result": "> 100", "unit": "µM"}, {"measurement": "TGI", "setting": "[2]", "result": "> 100", "unit": "µM"}, {"measurement": "TGI", "setting": "[3]", "result": "> 100", "unit": "µM"}, {"measurement": "TGI", "setting": "[4]", "result": "> 100", "unit": "µM"}, {"measurement": "TGI", "setting": "[5]", "result": "> 100", "unit": "µM"}, {"measurement": "TGI", "setting": "[6]", "result": "> 100", "unit": "µM"}, {"measurement": "TGI", "setting": "[8]", "result": "> 100", "unit": "µM"}, {"measurement": "TGI", "setting": "[9]", "result": "> 100", "unit": "µM"}]}
{"smiles": "CC1(C)COC(C2(C)C(=O)C=C(c3ccccc3)c3ccccc32)=N1", "note": "(stereo not given)", "values": [{"measurement": "TGI", "setting": "[1]", "result": "> 100", "unit": "µM"}, {"measurement": "TGI", "setting": "[2]", "result": "> 100", "unit": "µM"}, {"measurement": "TGI", "setting": "[3]", "result": "> 100", "unit": "µM"}, {"measurement": "TGI", "setting": "[5]", "result": "> 100", "unit": "µM"}, {"measurement": "TGI", "setting": "[6]", "result": "> 100", "unit": "µM"}, {"measurement": "TGI", "setting": "[8]", "result": "> 100", "unit": "µM"}, {"measurement": "TGI", "setting": "[9]", "result": "> 100", "unit": "µM"}]}
{"smiles": "NC(=S)N/N=C(\\CC1OC(=O)c2ccccc21)c1ccc(Cl)cc1", "note": "(stereo not given)", "values": [{"measurement": "TGI", "setting": "[1]", "result": "> 100", "unit": "µM"}, {"measurement": "TGI", "setting": "[2]", "result": "> 100", "unit": "µM"}, {"measurement": "TGI", "setting": "[3]", "result": "> 100", "unit": "µM"}, {"measurement": "TGI", "setting": "[4]", "result": 62.8, "unit": "µM"}, {"measurement": "TGI", "setting": "[6]", "result": "> 100", "unit": "µM"}, {"measurement": "TGI", "setting": "[8]", "result": 99.2, "unit": "µM"}, {"measurement": "TGI", "setting": "[9]", "result": 53.3, "unit": "µM"}]}
